Test results reported in patent US20150336948A1, “Isotopically Labeled Biaryl Urea Compounds” (Merck Sharp & Dohme Corp., priority 2012, published 2015).
Like-named read-outs stand apart in the source and are kept apart here.

How the values were obtained:
[1] = target: T1, In Vitro Assembled Tau filaments (full length tau 4R2N, T40 isoform) (Homo sapiens, UniProt P10636); assay: Displacement binding assay with in vitro assembled tau filaments; details: 0.4 uM tau filaments
T1 construct: full length tau monomer (4R2N, T40 isoform)
T1 sequence (P10636 1-441 isoform P10636-8): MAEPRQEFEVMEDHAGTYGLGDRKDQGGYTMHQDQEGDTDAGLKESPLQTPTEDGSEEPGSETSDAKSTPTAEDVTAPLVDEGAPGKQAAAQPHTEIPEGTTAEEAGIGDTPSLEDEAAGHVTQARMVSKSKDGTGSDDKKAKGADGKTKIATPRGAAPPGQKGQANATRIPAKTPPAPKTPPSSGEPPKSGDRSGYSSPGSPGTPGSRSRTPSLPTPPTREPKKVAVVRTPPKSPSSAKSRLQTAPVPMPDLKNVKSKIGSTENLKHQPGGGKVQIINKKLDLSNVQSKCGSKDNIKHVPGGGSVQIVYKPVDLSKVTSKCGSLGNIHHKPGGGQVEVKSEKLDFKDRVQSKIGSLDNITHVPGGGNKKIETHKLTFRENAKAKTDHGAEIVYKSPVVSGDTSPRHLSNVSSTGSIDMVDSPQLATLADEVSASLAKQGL
Method: In Vitro assembled tau filaments were prepared similarly to Barghorn et al, Methods Mol Biol. 2005, 299, 35-51.
Briefly, Twenty micromolar (uM) of full length tau monomer (4R2N, T40 isoform), was incubated at 37 degrees shaking for 14 days with 50 uM heparin, 2 mM DTT, and 0.04% sodium azide in 100 mM Sodium Acetate (NaOAC) buffer pH7.0. All concentrations listed are final concentrations. Samples of the mixture were taken at 0, 10, and 14 days, and filament formation was examined using Thioflavin T binding compared to a control sample of filaments.
For the displacement binding assay, compound dilutions (1000×) were added into the 96-well plate (150 nL per well). 100% (1 uM self-block (unlabeled Compound—Example 1 or Example 4 dependent on the ^3H-labeled input compound—Example 6 or 7, respectively)) and 0% (DMSO) controls were included in each assay plate. In Vitro Assembled Tau filaments diluted in assay buffer (PBS+0.1% BSA) were added at a final concentration of 0.4 uM per well. Subsequently, either ^3H compound of Example 7 or ^3H compound of Example 6 was added to each well at a final concentration of 8 nM. Incubation was carried out at room temperature (25° C.) for 90 minutes, and then the assay samples were filtered onto GF/B filter plates that had been blocked at least 1 hour with 50 uL 0.2% PEI using a PerkinElmer Filtermate 96-well plate harvester, washing 6 times with ice cold buffer (5 mM Tris, pH 7.4). Plates were dried in a vacuum oven at 37° C. for 1 hour, then plates were sealed on the back, and 50 ul of Microscint-20 was added to each well. The tops of the plates were sealed, and then plates were read in a PerkinElmer TopCount. Data analysis was performed using internally developed software (Assay Data Analyzer).

NFTs = assay: In vitro autoradiography, human AD brain slice, hippocampus (NFTs, PHF6 stain on adjacent slice); assay type: binding
Method: (§1) To assess presence of amyloid plaques and NFTs in the tested human brain samples, the adjacent human AD brain slices were used for autoradiography (ARG) and immunohistochemistry (IHC) studies. ARG was done using isotopically labeled compounds which bind selectively to amyloid plaques or NFTs. IHC was performed with antibodies for amyloid-beta (Aβ) (6E10 (Covance)) and phosphorylated tau (p-tau) (PHF6 (Covance)). Tissue homogenate binding was performed using human AD brain homogenates of cerebral cortex. Human brains from donor without neurological disorder were used as control in the same study. […]
(§2) The frozen human brain samples of Alzheimer's disease (AD) and non-AD were purchased from Analytic Biological Services Inc. Frozen brain slices (20 μm thickness) were prepared using a cryostat (Leica CM3050) and kept in sequential order. […] Total binding of radioligand in a brain slices was defined in the absence of competitor, and non-specific binding (NSB) was determined in the presence of competitor (1.0 μM unlabeled self block). […] After one week exposure, the plates were scanned in Fuji BAS 5000 Scanner, and the scanned images were analyzed using MCID 7.0 software. [^3H]-microscales (Amersham Biosciences, GE), were used for quantification of radioligand binding density. FIGS. 3 and 4 have ARG images detected through this method.

amyloid plaques = assay: In vitro autoradiography, human AD brain cortex slice (amyloid plaques, 6E10 stain on adjacent slice); assay type: binding; details: adjacent slice 6E10 positive
Method: as §1, §2

[2] = radioligand [3H] Example 7 at 8 nM, read-out: IC50, displacement of [3H] compound of Example 7 from in vitro assembled tau filaments

Compound	IC50 [1, 2] [nM]	further results
COc1ccccc1NC(=O)Nc1ccc(-c2cn(C)c3cnccc23)cc1 [Example 1, 1-(2-methoxyphenyl)-3-(4-(1-methyl-1H-pyrrolo[2,3-c]pyridin-3-yl)phenyl)urea]	13.6	IC50 ([1]; radioligand [3H] Example 6 at 8 nM, self-block, read-out: apparent IC50, inhibition of [3H] compound of Example 6 binding to in vitro assembled filaments): 3 nM
COc1ccccc1NC(=O)Nc1ccc(-c2cnn3c2CCC3)cc1 [Example 2, 1-(4-(5,6-dihydro-4H-pyrrolo[1,2-b]pyrazol-3-yl)phenyl)-3-(2-methoxyphenyl)urea]	25.1	
COc1ccccc1NC(=O)Nc1ccc(-c2cnn(C)c2)cc1 [Example 3, 1-(2-methoxyphenyl)-3-(4-(1-methyl-1H-pyrazol-4-yl)phenyl)urea]	33.6	
COc1ccccc1NC(=O)Nc1ccc(-c2cn(C)c3cnccc23)nc1 [Example 4, 1-(2-methoxyphenyl)-3-(6-(1-methyl-1H-pyrrolo[2,3-c]pyridin-3-yl)pyridin-3-yl)urea]	20.2	
Cn1cc(-c2ccc(NC(=O)Nc3ccccc3O)cn2)c2ccncc21 [Example 5, 1-(2-hydroxyphenyl)-3-(6-(1-methyl-1H-pyrrolo[2,3-c]pyridin-3-yl)pyridin-3-yl)urea]	92	
[3H]c1cc(-c2cn(C)c3cnccc23)cc([3H])c1NC(=O)Nc1c([3H])cccc1OC [Example 6, [^3H]-(2-methoxyphenyl)-3-(4-(1-methyl-1H-pyrrolo[2,3-c]pyridin-3-yl)phenyl)urea]		autoradiographic binding pattern compared with PHF6 stain of NFTs in hippocampus (NFTs; 5 nM radioligand, human AD brain slice, adjacent slice IHC): consistent with the autoradiographic binding pattern; specificity for Tau over Aβ (ARG evidence) (NFTs; human AD brain slices, FIGS. 3 and 4): measurable specificity; binding to amyloid plaques in cortex region (autoradiography) (amyloid plaques): lack of
